Patent US20240164369A1, “MESENCHYMAL STEM CELLS FOR USE IN INCREASING EX-VIVO ORGAN LIFE” (Amniotics AB, priority 2021, published 2024)

What was measured:
[1] = tested on: T cells among human PBMCs activated with aCD3/aCD28; experiment: PBMC:MSC co-culture, T cell activation status after 24 hours (FACS)
Method: (§1) Following activation, cells were analysed for effects on cellular composition after 24 hours and for effects on cellular composition and cell proliferation using CFSE after 72 hours. In addition, supernatants collected after 24 hours of activation were analysed for cytokine levels using Luminex.
(§2) Peripheral Blood Mononuclear Cells (PBMCs) were isolated from leucocyte concentrate from three different donors (acquired from Blodcentralen, Lunds Universitetssjukhus, Lund, Sweden) through gradient centrifugation at 400×g for 40 minutes using Ficoll. Red blood cells (RBCs) were lysed using BD Pharmlyse buffer 10× diluted in milliQ water for 3 minutes at room temperature (RT). Cells were washed and the isolated PBMCs were pooled. Cell concentration was determined using a Scepter cell counter (Millipore Merck, MA. USA). Cells were diluted to 1×10^7 cells/ml in PBS. Pooled PBMCs were split into 2 different tubes. Cells in tube 1 was stained with CFSE at 5 μM for 5 minutes (dark, RT). CFSEstained cells were washed with an equal volume of FBS to stop the reaction and washed again with PBS. Cells in tube two was left in PBS. […]
(§3) Following 24 hours of incubation, cells in FACS/Luminex plates were stained with antibodies detecting CD73, CD4, CD8, CD80, CD206, CD163 and PD-1 in staining buffer (PBS supplemented with 1% BSA). […] 150 μl was analysed from each sample.

[2] = tested on: T cells among human PBMCs activated with aCD3/aCD28; experiment: PBMC:MSC co-culture, T cell composition and CFSE proliferation after 72 hours
Method: as §1
(§4) Peripheral Blood Mononuclear Cells (PBMCs) were isolated from leucocyte concentrate from three different donors (acquired from Blodcentralen, Lunds Universitetssjukhus, Lund, Sweden) through gradient centrifugation at 400×g for 40 minutes using Ficoll. Red blood cells (RBCs) were lysed using BD Pharmlyse buffer 10× diluted in milliQ water for 3 minutes at room temperature (RT). Cells were washed and the isolated PBMCs were pooled. Cell concentration was determined using a Scepter cell counter (Millipore Merck, MA. USA). Cells were diluted to 1×10^7 cells/ml in PBS. Pooled PBMCs were split into 2 different tubes. Cells in tube 1 was stained with CFSE at 5 μM for 5 minutes (dark, RT). CFSEstained cells were washed with an equal volume of FBS to stop the reaction and washed again with PBS. Cells in tube two was left in PBS.
When plating controls, cells were spun down and diluted in M3 or M4 at 4*10^6 cells/ml, with a total amount of cells at 4*10^5 cells/well. 100 μl PBMCs were added per well. […] Medium was added to unstimulated control wells (700 μl/well). […]

[3] = tested on: granulocytes and macrophages among human PBMCs activated with aCD3/aCD28; experiment: PBMC:MSC co-culture, macrophage composition and CFSE proliferation after 72 hours; assay type: cell-based
Method: as §1, §4
When plating controls, cells were spun down and diluted in M3 or M4 at 4*10^6 cells/ml, with a total amount of cells at 4*10^5 cells/well. 100 μl PBMCs were added per well. […] Medium was added to unstimulated control wells (700 μl/well). Cells were incubated for 24 or 72 hours at 37° ° C., 5% CO2. See also FIG. 23.
After 72 hours of incubation, CFSE stained cells were stained with CD4, CD8, CD80, CD206 and CD163 in staining buffer. Briefly, cells were transferred to V bottom plates, centrifuged at 360×g for 2 min. Cells were washed in PBS, centrifuged at 360×g for 2 min at 4° C. Supernatant was flicked off and surface markers were added. Cells were incubated at +4° C. for 20 minutes. After incubation, cells were washed 1× in PBS, centrifuged at 360×g for 2 min at 4° ° C. Cells were resuspended in PBS and acquired using the Attune Nxt flow cytometer. Compensation was performed using beads • AbC Total Compensation capture beads and negative beads for surface markers. For CFSE compensation, newly CFSE stained cells were used. Since compensation was done using both beads and cells, FSC and SSC were changed and adjusted to beads or cells. Lasers were not changed after compensation. 2.3.4 Cytokine Analysis after 24 Hours of Activation (Luminex)
Graphs were performed using Prism 8 for Mac OS X (GraphPad Software, San Diego, CA, USA). Results are presented as mean values±SEM, if not otherwise stated. Dot plots were acquired from analysis using FlowJo v10.6.1 for Mac (BD, New Jersey, USA).

[4] = tested on: granulocytes and macrophages among human PBMCs activated with aCD3/aCD28; experiment: PBMC:MSC co-culture, macrophage activation status after 24 hours (FACS); assay type: cell-based; conditions: Prednisolone 125 nM
Method: as §1, §2, §3

[5] = tested on: human PBMCs activated with aCD3/aCD28; experiment: cytokine analysis in co-culture supernatant after 24 hours (Luminex); assay type: cell-based; conditions: media 3
Method: 100 μl PBMCs were added per well. […] See also FIG. 23. Supernatant (24 hours incubation) was analysed for cytokines using the 12-[…]-12 Luminex kit. All reagents, standard and samples were prepared at room temperature and according to manufacturer's instruction. Briefly, 50 μl of standard or sample was added to wells. Microparticles were added to samples and standard and samples were incubated for 2 hours at room temperature on a horizontal orbital shaker (800 rpm). Plate was washed 3× in washing buffer using a magnetic plate. Biotin-antibody was added and incubated dark for 1 hour at room temperature on a horizontal orbital shaker (800 rpm). Plate was washed 3× in washing buffer using a magnetic plate. Streptavidin-PE was added to each well and incubated dark at room temperature on a horizontal orbital shaker (800 rpm) for 30 minutes. Plate was washed 3× in washing buffer using a magnetic plate. Microparticles were resuspended in 100 μl washing buffer, incubated for 2 minutes on a horizontal orbital shaker (800 rpm). Samples were analysed on a Bio-Rad Luminex analyzer.

C[C@]12C=CC(=O)C=C1CC[C@@H]1[C@@H]2[C@@H](O)C[C@@]2(C)[C@H]1CC[C@]2(O)C(=O)CO [Prednisolone]
composition of T helper cells (% CD4+ lymphocytes or MFI of CD4+ lymphocytes) ([1]; 24 hours of incubation, vs control): higher levels
inhibition of T cell activation ([1]; 24 hours, CsA 10 μg/ml, Prednisolone 125 nM): only slightly inhibits
effect on cytotoxic T cells (%) [2]: no effect
effect on T helper cells (%) ([2]; 72 hours of incubation): no effect
M1 expression levels [3]: no effect
M1 proliferation (CFSE) [3]: No effect
M2 expression levels [3]: no effect
M2 proliferation (CFSE) [3]: No effect
macrophage cell composition [4]: did not have an effect
HGF level in supernatant [5]: inhibits
IL-6 level in supernatant [5]: inhibits
IL-12/IL-23 p40 level in supernatant [5]: inhibits
TNF-a level in supernatant [5]: inhibits
the other analysed cytokines, levels in supernatant [5]: No inhibitory effect
